Measurements: ChEMBL document CHEMBL1145498, “A systematic interaction map of validated kinase inhibitors with Ser/Thr kinases” (Proc Natl Acad Sci U S A, 2007)

How the values were obtained:
[1] = target: Mitogen-activated protein kinase 11 (Homo sapiens, UniProt Q15759)
[2] = target: Casein kinase I isoform gamma-3 (Homo sapiens) (UniProt Q9Y6M4)
[3] = target: T1, Calcium/calmodulin-dependent protein kinase type IV (Homo sapiens) (UniProt Q16566)
T1 sequence (whole entry): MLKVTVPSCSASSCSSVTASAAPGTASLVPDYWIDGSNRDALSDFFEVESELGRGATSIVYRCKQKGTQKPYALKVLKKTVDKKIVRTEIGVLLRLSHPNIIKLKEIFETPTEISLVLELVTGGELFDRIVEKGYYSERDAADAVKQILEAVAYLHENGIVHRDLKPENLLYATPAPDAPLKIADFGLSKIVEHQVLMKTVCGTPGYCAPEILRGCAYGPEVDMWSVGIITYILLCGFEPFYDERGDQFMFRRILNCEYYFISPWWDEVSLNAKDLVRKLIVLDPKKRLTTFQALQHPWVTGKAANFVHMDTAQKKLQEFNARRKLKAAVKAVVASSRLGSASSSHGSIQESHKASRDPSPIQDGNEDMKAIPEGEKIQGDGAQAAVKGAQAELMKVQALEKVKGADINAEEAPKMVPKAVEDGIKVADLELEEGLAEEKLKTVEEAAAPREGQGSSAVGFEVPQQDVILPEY

[4] = target: Serine/threonine-protein kinase RIO2 (Homo sapiens) (UniProt Q9BVS4)
Serine/threonine-protein kinase RIO2 (Homo sapiens), sequence (Q9BVS4 whole entry, looked up): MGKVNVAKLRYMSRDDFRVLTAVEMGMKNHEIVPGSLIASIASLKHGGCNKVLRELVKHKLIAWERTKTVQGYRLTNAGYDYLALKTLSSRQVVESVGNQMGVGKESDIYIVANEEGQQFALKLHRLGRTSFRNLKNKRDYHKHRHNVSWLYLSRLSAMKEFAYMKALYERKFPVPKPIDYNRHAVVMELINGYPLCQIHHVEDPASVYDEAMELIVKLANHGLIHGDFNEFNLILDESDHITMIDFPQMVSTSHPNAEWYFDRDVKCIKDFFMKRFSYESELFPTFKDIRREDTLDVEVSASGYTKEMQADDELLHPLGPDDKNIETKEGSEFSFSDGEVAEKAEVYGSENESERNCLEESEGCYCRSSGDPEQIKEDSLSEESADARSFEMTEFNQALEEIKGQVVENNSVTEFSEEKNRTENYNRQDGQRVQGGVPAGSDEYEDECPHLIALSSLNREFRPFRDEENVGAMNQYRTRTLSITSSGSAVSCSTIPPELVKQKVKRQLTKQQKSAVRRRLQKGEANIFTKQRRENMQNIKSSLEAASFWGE

[5] = target: Serine/threonine-protein kinase VRK2 (Homo sapiens) (UniProt Q86Y07)
[6] = target: Ribosomal protein S6 kinase alpha-3 (Homo sapiens) (UniProt P51812)
[7] = target: Mitogen-activated protein kinase 6 (Homo sapiens) (UniProt Q16659)
Mitogen-activated protein kinase 6 (Homo sapiens), sequence (Q16659 whole entry): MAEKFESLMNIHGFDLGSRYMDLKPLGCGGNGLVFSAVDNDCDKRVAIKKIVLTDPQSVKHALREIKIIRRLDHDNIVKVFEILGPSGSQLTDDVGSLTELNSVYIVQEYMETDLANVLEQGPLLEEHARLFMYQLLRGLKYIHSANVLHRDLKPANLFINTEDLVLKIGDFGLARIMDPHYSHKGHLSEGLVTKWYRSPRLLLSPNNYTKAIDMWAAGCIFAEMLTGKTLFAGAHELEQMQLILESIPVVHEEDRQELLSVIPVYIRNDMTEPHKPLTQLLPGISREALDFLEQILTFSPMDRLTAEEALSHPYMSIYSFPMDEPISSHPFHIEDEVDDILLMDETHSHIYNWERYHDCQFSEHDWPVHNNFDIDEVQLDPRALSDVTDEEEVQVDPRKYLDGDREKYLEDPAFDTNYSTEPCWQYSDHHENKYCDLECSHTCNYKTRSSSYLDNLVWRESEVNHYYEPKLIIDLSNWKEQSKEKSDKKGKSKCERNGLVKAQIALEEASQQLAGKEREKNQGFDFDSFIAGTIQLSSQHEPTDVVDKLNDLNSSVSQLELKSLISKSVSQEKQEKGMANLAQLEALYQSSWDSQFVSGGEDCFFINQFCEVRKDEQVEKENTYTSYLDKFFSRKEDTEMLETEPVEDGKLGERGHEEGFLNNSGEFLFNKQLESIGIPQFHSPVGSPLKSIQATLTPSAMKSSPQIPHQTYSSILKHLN

[8] = target: Serine/threonine-protein kinase PAK 4 (Homo sapiens) (UniProt O96013)
Serine/threonine-protein kinase PAK 4 (Homo sapiens), sequence (O96013 whole entry, looked up): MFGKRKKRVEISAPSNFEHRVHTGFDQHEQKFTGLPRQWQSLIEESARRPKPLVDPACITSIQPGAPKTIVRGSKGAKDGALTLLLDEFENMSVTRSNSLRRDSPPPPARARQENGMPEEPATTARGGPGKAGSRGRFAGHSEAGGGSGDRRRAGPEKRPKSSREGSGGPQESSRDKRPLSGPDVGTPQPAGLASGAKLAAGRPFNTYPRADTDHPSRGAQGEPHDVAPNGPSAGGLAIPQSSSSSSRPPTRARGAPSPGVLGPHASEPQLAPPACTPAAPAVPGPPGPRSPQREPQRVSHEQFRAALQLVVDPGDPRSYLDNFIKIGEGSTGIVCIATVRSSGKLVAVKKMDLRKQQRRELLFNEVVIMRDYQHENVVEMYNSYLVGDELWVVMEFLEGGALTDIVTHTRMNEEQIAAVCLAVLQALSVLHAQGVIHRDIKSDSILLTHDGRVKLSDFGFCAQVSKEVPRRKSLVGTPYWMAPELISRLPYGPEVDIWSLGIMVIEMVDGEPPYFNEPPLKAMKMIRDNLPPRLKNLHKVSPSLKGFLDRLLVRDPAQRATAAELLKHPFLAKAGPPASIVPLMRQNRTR

[9] = target: T2, Serine/threonine-protein kinase VRK3 (Homo sapiens) (UniProt Q8IV63)
T2 sequence (whole entry): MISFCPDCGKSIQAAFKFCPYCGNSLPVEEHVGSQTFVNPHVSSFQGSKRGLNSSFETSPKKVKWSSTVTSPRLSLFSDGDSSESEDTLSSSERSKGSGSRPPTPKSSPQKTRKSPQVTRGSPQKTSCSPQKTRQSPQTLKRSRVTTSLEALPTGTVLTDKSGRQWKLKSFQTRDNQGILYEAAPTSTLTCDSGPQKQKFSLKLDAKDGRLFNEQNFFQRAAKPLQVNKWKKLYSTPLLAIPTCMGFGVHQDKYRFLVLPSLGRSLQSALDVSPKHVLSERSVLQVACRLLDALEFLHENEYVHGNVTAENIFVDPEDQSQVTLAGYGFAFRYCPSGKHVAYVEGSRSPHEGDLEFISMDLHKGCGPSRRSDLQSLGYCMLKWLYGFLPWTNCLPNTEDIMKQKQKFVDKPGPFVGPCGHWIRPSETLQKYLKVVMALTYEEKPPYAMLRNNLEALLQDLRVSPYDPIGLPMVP

[10] = target: cAMP-dependent protein kinase catalytic subunit alpha (Homo sapiens) (UniProt P17612)
[11] = target: Serine/threonine-protein kinase PAK 5 (Homo sapiens) (UniProt Q9P286)
[12] = target: Calcium/calmodulin-dependent protein kinase type II subunit gamma (Homo sapiens) (UniProt Q13555)
Calcium/calmodulin-dependent protein kinase type II subunit gamma (Homo sapiens), sequence (Q13555 whole entry): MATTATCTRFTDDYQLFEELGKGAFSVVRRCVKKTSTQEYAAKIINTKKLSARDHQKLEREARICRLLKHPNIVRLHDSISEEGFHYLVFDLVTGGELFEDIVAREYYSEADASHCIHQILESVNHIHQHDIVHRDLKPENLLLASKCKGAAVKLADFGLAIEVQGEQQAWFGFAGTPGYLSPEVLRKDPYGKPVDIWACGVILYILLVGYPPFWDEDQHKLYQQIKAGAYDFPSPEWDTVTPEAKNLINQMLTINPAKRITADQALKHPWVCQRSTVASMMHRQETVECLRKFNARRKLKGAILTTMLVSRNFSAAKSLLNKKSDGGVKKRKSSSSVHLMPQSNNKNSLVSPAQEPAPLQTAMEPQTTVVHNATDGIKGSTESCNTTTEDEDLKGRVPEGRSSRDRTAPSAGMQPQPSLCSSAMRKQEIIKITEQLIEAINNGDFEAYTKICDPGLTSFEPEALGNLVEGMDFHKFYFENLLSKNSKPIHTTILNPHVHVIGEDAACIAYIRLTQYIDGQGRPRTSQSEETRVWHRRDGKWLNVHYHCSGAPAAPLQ

[13] = target: Serine/threonine-protein kinase pim-3 (Homo sapiens) (UniProt Q86V86)
[14] = target: Serine/threonine-protein kinase PAK 6 (Homo sapiens) (UniProt Q9NQU5)
[15] = target: T3, Dual specificity mitogen-activated protein kinase kinase 6 (Homo sapiens) (UniProt P52564)
T3 sequence (whole entry): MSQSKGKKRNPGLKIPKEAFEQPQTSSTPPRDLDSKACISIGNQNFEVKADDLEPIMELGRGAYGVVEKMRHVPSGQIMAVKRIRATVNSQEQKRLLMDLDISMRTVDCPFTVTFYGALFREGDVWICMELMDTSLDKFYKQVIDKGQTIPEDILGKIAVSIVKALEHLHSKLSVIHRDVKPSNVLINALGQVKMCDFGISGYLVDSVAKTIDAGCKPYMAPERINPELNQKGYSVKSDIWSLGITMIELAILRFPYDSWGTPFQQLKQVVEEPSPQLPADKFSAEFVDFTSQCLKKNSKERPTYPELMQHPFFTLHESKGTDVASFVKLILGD

[16] = target: TRAF2 and NCK-interacting protein kinase (Homo sapiens) (UniProt Q9UKE5)
TRAF2 and NCK-interacting protein kinase (Homo sapiens), sequence (Q9UKE5 whole entry, looked up): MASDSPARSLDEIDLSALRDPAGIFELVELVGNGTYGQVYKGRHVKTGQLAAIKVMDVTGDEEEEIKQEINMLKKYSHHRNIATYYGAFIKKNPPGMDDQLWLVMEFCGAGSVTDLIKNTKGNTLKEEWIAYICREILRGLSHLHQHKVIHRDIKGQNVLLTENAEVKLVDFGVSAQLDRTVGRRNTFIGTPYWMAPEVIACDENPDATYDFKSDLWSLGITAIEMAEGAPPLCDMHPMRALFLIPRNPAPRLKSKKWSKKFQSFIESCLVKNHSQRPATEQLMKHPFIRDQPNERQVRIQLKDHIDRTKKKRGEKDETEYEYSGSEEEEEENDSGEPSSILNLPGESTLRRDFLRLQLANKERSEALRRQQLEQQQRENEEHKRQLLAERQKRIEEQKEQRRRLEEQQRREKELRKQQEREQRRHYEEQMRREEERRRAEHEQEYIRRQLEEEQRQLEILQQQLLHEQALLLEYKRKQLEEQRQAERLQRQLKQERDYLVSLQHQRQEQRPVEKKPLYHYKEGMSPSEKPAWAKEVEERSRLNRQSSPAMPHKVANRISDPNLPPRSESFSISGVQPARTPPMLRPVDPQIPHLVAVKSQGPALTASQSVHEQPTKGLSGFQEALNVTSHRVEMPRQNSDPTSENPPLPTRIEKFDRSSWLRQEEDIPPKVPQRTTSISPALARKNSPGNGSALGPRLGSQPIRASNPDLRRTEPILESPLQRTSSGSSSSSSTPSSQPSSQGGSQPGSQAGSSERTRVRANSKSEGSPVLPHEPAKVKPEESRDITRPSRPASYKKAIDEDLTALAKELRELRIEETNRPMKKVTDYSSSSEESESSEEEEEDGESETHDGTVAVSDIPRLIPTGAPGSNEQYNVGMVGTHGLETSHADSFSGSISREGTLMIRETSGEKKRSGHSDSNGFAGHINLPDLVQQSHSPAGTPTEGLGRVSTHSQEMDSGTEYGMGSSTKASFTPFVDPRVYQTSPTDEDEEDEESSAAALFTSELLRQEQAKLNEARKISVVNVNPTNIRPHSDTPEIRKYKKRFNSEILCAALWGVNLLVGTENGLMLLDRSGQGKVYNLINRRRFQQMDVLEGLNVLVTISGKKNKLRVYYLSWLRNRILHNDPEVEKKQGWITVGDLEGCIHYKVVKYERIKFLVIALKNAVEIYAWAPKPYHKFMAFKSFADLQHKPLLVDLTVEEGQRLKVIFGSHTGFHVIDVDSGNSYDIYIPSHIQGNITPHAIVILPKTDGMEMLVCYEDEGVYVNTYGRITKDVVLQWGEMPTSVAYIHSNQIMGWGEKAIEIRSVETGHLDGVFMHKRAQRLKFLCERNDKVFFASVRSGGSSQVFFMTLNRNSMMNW

[17] = target: T4, Serine/threonine-protein kinase 4 (Homo sapiens) (UniProt Q13043)
T4 sequence (whole entry): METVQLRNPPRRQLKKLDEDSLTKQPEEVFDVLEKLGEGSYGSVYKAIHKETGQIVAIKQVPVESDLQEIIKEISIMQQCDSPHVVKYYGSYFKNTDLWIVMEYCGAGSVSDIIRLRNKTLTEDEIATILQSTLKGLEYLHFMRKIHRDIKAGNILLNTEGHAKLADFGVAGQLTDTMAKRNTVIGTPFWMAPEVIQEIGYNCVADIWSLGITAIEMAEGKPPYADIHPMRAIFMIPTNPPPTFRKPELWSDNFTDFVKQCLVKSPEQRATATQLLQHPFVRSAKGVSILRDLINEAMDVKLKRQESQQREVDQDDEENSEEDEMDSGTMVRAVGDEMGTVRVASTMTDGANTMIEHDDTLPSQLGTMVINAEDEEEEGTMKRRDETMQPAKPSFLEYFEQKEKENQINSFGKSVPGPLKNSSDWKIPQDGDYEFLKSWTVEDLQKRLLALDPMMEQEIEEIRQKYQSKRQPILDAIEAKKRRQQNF

[18] = target: Serine/threonine-protein kinase 10 (Homo sapiens) (UniProt O94804)
[19] = target: Serine/threonine-protein kinase 25 (Homo sapiens) (UniProt O00506)

Casein kinase I isoform gamma-3 (Homo sapiens), sequence (Q9Y6M4 whole entry, looked up, canonical isoform): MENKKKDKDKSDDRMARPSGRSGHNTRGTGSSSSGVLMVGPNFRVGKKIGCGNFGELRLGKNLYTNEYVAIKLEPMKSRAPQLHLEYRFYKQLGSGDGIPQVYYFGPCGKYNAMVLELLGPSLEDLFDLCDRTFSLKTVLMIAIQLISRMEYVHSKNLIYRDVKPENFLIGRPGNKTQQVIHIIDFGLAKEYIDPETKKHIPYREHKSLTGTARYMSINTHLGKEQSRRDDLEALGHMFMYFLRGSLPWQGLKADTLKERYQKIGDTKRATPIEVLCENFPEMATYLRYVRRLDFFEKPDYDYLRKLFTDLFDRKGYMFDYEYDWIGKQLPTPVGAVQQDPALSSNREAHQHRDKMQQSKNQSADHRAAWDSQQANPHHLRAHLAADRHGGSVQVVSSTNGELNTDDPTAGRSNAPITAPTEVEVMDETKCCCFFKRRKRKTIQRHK
Mitogen-activated protein kinase 11, sequence (Q15759 whole entry, canonical isoform): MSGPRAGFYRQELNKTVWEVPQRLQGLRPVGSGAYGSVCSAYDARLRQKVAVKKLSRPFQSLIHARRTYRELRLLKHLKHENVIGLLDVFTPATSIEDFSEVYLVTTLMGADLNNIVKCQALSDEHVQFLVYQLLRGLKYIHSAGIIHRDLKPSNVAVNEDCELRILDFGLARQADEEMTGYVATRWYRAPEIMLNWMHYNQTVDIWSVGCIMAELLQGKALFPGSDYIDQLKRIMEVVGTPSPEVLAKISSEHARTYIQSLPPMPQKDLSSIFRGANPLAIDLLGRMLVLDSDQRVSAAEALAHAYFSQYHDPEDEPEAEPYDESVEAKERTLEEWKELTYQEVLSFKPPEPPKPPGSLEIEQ

## O=C1c2ccccc2-[n+]2ccc3c([nH]c4ccccc43)c21 [FASCAPLYSIN CHLORIDE]
[1]
  ΔTm: -1.3 °C
[2]
  ΔTm: -0.8 °C
[3]
  ΔTm: 0.7 °C
[4]
  ΔTm: -0.9 °C
[5]
  ΔTm: -0.8 °C
[6]
  ΔTm: -0.1 °C
[7]
  ΔTm: -1.9 °C
[8]
  ΔTm: -0.6 °C
[9]
  ΔTm: -0.4 °C
[10]
  ΔTm: 0.6 °C
[11]
  ΔTm: 0.3 °C
[12]
  ΔTm: -1.8 °C
[13]
  ΔTm: 0 °C
[14]
  ΔTm: -0.9 °C
[15]
  ΔTm: -0.8 °C
[16]
  ΔTm: -0.9 °C
[17]
  ΔTm: -1.6 °C
[18]
  ΔTm: -1.8 °C
[19]
  ΔTm: -1.5 °C

## COc1cc(OC)c(/C=C2\C(=O)Nc3ccccc32)c(OC)c1
[1]
  ΔTm: 0.6 °C
[2]
  ΔTm: 0.5 °C
[3]
  ΔTm: -0.1 °C
[4]
  ΔTm: -0.2 °C
[5]
  ΔTm: 2.2 °C
[6]
  ΔTm: -0.2 °C
[7]
  ΔTm: -0.2 °C
[8]
  ΔTm: 0.1 °C
[9]
  ΔTm: 0.7 °C
[10]
  ΔTm: 0.4 °C
[11]
  ΔTm: -0.3 °C
[12]
  ΔTm: 0 °C
[13]
  ΔTm: 1 °C
[14]
  ΔTm: 0 °C
[15]
  ΔTm: 0 °C
[16]
  ΔTm: 0.8 °C
[17]
  ΔTm: -0.1 °C
[18]
  ΔTm: 0.8 °C
[19]
  ΔTm: 0.1 °C

## O=C1C(Cl)=C(N2C(=O)CCC2=O)C(=O)c2ccccc21
[1]
  ΔTm: 8.6 °C
[2]
  ΔTm: 0.1 °C
[3]
  ΔTm: 1.2 °C
[4]
  ΔTm: -1.5 °C
[5]
  ΔTm: -0.3 °C
[6]
  ΔTm: -0.8 °C
[7]
  ΔTm: -1.1 °C
[8]
  ΔTm: -0.4 °C
[9]
  ΔTm: -0.7 °C
[10]
  ΔTm: -0.2 °C
[11]
  ΔTm: -1.3 °C
[12]
  ΔTm: -0.4 °C
[13]
  ΔTm: -1.7 °C
[14]
  ΔTm: -5 °C
[15]
  ΔTm: -11 °C
[16]
  ΔTm: -2.4 °C
[17]
  ΔTm: -0.8 °C
[18]
  ΔTm: -0.5 °C
[19]
  ΔTm: -0.5 °C

## C/C(O)=C(\C#N)C(=O)Nc1cc(Br)ccc1Br
[1]
  ΔTm: 0.3 °C
[2]
  ΔTm: 0.3 °C
[3]
  ΔTm: 0.1 °C
[4]
  ΔTm: 1.5 °C
[5]
  ΔTm: 0.1 °C
[6]
  ΔTm: 0.6 °C
[7]
  ΔTm: 0.4 °C
[8]
  ΔTm: -0.3 °C
[9]
  ΔTm: -0.3 °C
[10]
  ΔTm: 1.4 °C
[11]
  ΔTm: 0.4 °C
[12]
  ΔTm: -0.1 °C
[13]
  ΔTm: 3.8 °C
[14]
  ΔTm: -0.2 °C
[15]
  ΔTm: 0.2 °C
[16]
  ΔTm: -0.1 °C
[17]
  ΔTm: 0.2 °C
[18]
  ΔTm: 0.9 °C
[19]
  ΔTm: -0.1 °C

## Cc1cc(C=C2C(=O)C=CC2=O)cc(C)c1O
[1]
  ΔTm: 2.3 °C
[2]
  ΔTm: -0.1 °C
[3]
  ΔTm: -0.1 °C
[4]
  ΔTm: 0.7 °C
[5]
  ΔTm: 0.2 °C
[6]
  ΔTm: 1.8 °C
[7]
  ΔTm: -1.6 °C
[8]
  ΔTm: 0.7 °C
[9]
  ΔTm: -0.3 °C
[10]
  ΔTm: 0.5 °C
[11]
  ΔTm: 0.1 °C
[12]
  ΔTm: 0.3 °C
[13]
  ΔTm: 3.6 °C
[14]
  ΔTm: -2.6 °C
[15]
  ΔTm: 7.9 °C
[16]
  ΔTm: -4.1 °C
[17]
  ΔTm: 0.8 °C
[18]
  ΔTm: 1.2 °C
[19]
  ΔTm: 0.4 °C

## NC1=N/C(=C2/CCNC(=O)c3[nH]ccc32)C(=O)N1 [DEBROMOHYMENIALDISINE]
[1]
  ΔTm: -0.4 °C
[2]
  ΔTm: 2.4 °C
[3]
  ΔTm: 0 °C
[4]
  ΔTm: -0.3 °C
[5]
  ΔTm: 0.7 °C
[6]
  ΔTm: 2.6 °C
[7]
  ΔTm: 0.3 °C
[8]
  ΔTm: 0.9 °C
[9]
  ΔTm: 0.5 °C
[10]
  ΔTm: 0 °C
[11]
  ΔTm: 0.2 °C
[12]
  ΔTm: 0.3 °C
[13]
  ΔTm: 2.4 °C
[14]
  ΔTm: 0.1 °C
[15]
  ΔTm: 0.3 °C
[16]
  ΔTm: 1.6 °C
[17]
  ΔTm: 2.6 °C
[18]
  ΔTm: 1.7 °C
[19]
  ΔTm: 1.7 °C

## CC(=O)O/N=C1/C(=C2/C(=O)Nc3cc(Br)ccc32)Nc2ccccc21 [6-BROMOINDIRUBIN-3'-ACETOXIME]
[1]
  ΔTm: 1.1 °C
[2]
  ΔTm: 0.5 °C
[3]
  ΔTm: 4.6 °C
[4]
  ΔTm: 1.7 °C
[5]
  ΔTm: 0.6 °C
[6]
  ΔTm: 2.5 °C
[7]
  ΔTm: 0.3 °C
[8]
  ΔTm: 2.2 °C
[9]
  ΔTm: 0.7 °C
[10]
  ΔTm: 3 °C
[11]
  ΔTm: 0.9 °C
[12]
  ΔTm: 2.4 °C
[13]
  ΔTm: 1.1 °C
[14]
  ΔTm: 0.3 °C
[15]
  ΔTm: 0.8 °C
[16]
  ΔTm: 0.4 °C
[17]
  ΔTm: 3.5 °C
[18]
  ΔTm: 0 °C
[19]
  ΔTm: 1.1 °C

## N#C/C(=C(/N)Sc1ccc(N)cc1)c1ccccc1C(F)(F)F
[1]
  ΔTm: 0 °C
[2]
  ΔTm: 0.6 °C
[3]
  ΔTm: 0.5 °C
[4]
  ΔTm: -0.2 °C
[5]
  ΔTm: 0.1 °C
[6]
  ΔTm: 0 °C
[7]
  ΔTm: 0.4 °C
[8]
  ΔTm: 1.3 °C
[9]
  ΔTm: 0.5 °C
[10]
  ΔTm: 0.7 °C
[11]
  ΔTm: 0.6 °C
[12]
  ΔTm: 0.1 °C
[13]
  ΔTm: 0.8 °C
[14]
  ΔTm: 0.4 °C
[15]
  ΔTm: 0.2 °C
[16]
  ΔTm: -0.1 °C
[17]
  ΔTm: 0.8 °C
[18]
  ΔTm: 0.4 °C
[19]
  ΔTm: 0 °C

## N=C(N)NCCNS(=O)(=O)c1cccc2cnccc12
[1]
  ΔTm: -0.3 °C
[2]
  ΔTm: 0.3 °C
[3]
  ΔTm: -0.3 °C
[4]
  ΔTm: 1.5 °C
[5]
  ΔTm: 0.1 °C
[6]
  ΔTm: 0.4 °C
[7]
  ΔTm: 0.4 °C
[8]
  ΔTm: -0.1 °C
[9]
  ΔTm: 0.3 °C
[10]
  ΔTm: 1.7 °C
[11]
  ΔTm: 0.4 °C
[12]
  ΔTm: 0 °C
[13]
  ΔTm: 0.8 °C
[14]
  ΔTm: 0 °C
[15]
  ΔTm: -0.1 °C
[16]
  ΔTm: 0.1 °C
[17]
  ΔTm: 0.4 °C
[18]
  ΔTm: 0.7 °C
[19]
  ΔTm: -0.4 °C

## CC(C)(C)n1nc(-c2cccc3ccccc23)c2c(N)ncnc21
[1]
  ΔTm: 2.9 °C
[2]
  ΔTm: 0.5 °C
[3]
  ΔTm: -0.1 °C
[4]
  ΔTm: 0.4 °C
[5]
  ΔTm: 2.8 °C
[6]
  ΔTm: 2.4 °C
[7]
  ΔTm: 0 °C
[8]
  ΔTm: 1.2 °C
[9]
  ΔTm: 0.2 °C
[10]
  ΔTm: 2.1 °C
[11]
  ΔTm: 1 °C
[12]
  ΔTm: 0.2 °C
[13]
  ΔTm: 0.7 °C
[14]
  ΔTm: 0.3 °C
[15]
  ΔTm: 3.5 °C
[16]
  ΔTm: 4.5 °C
[17]
  ΔTm: 3.2 °C
[18]
  ΔTm: 4 °C
[19]
  ΔTm: 1.3 °C

## CCOC(=O)c1c(C)[nH]c(/C=C2\C(=O)Nc3ccccc32)c1C
[1]
  ΔTm: -0.4 °C
[2]
  ΔTm: 0.3 °C
[3]
  ΔTm: -0.4 °C
[4]
  ΔTm: -8.9 °C
[5]
  ΔTm: 0.2 °C
[6]
  ΔTm: 3 °C
[7]
  ΔTm: -0.1 °C
[8]
  ΔTm: 0.9 °C
[9]
  ΔTm: -2.2 °C
[10]
  ΔTm: -1.6 °C
[11]
  ΔTm: -0.5 °C
[12]
  ΔTm: -0.1 °C
[13]
  ΔTm: 0.3 °C
[14]
  ΔTm: -0.5 °C
[15]
  ΔTm: 0 °C
[16]
  ΔTm: 0.4 °C
[17]
  ΔTm: 3 °C
[18]
  ΔTm: 1.6 °C
[19]
  ΔTm: 0.6 °C
